Measured values: PMC12571071, “Preventing neuropathy and improving anticancer chemotherapy with a carbazole-based compound” (Science Advances, 2025)
Like-named read-outs stand apart in the source and are kept apart here.

Assays:
[1] = system: HeLa cells; assay: HeLa cell viability (PrestoBlue) assay, 72 h; type: cell-based, human; conditions: for GI50 FK866 with carbazole/GI50 FK866 / GI50 PTX/GI50 PTX with carbazole: ratio at the highest noncytotoxic dose of carbazole analog; for GI50 FK866 with carbazole/GI50 FK866: readout of NAMPT activation; for GI50 PTX/GI50 PTX with carbazole: synergy with PTX; for fold reduction of GI50 by addition of 12 μM Carba1: drug with 12 μM Carba1 vs drug alone
Method: The human HeLa cell line was tested negative for mycoplasma contamination. HeLa cells were grown in RPMI 1640 medium supplemented with penicillin/streptomycin (100 μg/ml) and 10% FBS and maintained in a humidified incubator at 37°C and 5% CO2.
Cell viability was analyzed using the colorimetric PrestoBlue assay. Cells were seeded in 96-well microplates at a density of 7500 cells per well, allowed to adhere for 24 hours, and treated for 72 hours with either DMSO or drugs at indicated concentrations. PrestoBlue (10 μl) was then added to each well, followed by a 30-min incubation. Fluorescence was measured using a FLUOstar Optima microplate reader (excitation, 544 nm; emission, 580 nm; BMG Labtech).

[2] = system: adult mouse DRG neurons; assay: Axonal degeneration index in dissociated adult mouse DRG neurons; conditions: DIV 12 neurons, 72 h; Carba1 12 μM, PTX 50 nM, Cis 10 μM, Bort 100 nM
Method: After 4 days in vitro (DIV), at least 30% of medium was changed, and 10 μM AraC (cytosine β-D-arabino furanoside) was added to suppress nonneuronal growth. […] Neurons were fixed with 4% paraformaldehyde (PFA), washed with PBS, permeabilized with PBS–0.01% Triton X-100 for 15 min, and blocked with PBS–10% FBS for 1 hour before being stained overnight at 4°C with neurofilament antibody. Following PBS washes, secondary antibody (goat anti-chicken Alexa Fluor 488) was applied for 2 hours at room temperature (R.T.). Following additional PBS washes, coverslips were mounted with Fluoromount-G.
Images of random fields of dissociated adult DRG neurons, immunostained with antineurofilament or anti-TUBB3 antibodies, were captured using a 20× objective lens (Olympus IX81) and a Sensicam QE monochrome camera (Cooke Corporation). Degeneration masks were generated on the basis of the method described by Gerdts et al. ([66]). Axonal degeneration was quantified by measuring the total axonal area and fragmented axonal area in the same field, using degeneration masks as shown in fig. […] Images were processed in Fiji using global autothresholding, binarization, and the particle analyzer module to detect fragments (20 to 10,000 pixels), as previously described ([17]). The degeneration index was calculated as the ratio of fragmented axonal area to total axonal area.

[3] = cell viability, compound alone, read-out: GI50
[4] = Homo sapiens, HeLa cells, 72 h, PrestoBlue, drug applied alone, read-out: GI50, drug alone

| Compound | GI50 [1, 3] | GI50 FK866 with carbazole/GI50 FK866 [1] | GI50 PTX/GI50 PTX with carbazole [1] | further results |
| --- | --- | --- | --- | --- |
| Cc1cc(-n2cccc2)c(C)c2c1[nH]c1ccc(Br)cc12 [Compound 2] | 16 µM | 2 | 1.6 |  |
| CC(C)C[C@H](NC(=O)[C@H](Cc1ccccc1)NC(=O)c1cnccn1)B(O)O [Bort, bortezomib, reference compound] |  |  |  | GI50 [1, 4]: 0.0359 ± 0.0037 µM; GI50 ([1]; Homo sapiens, HeLa cells, 72 h, with 12 μM Carba1, read-out: GI50, drug in combination with Carba1): 0.04 ± 0.0033 µM; axonal fragmentation / degeneration, agent alone [2]: induced significant axonal fragmentation |
| COc1cccc(NCC(F)Cn2c3ccc(Cl)cc3c3c(C)c(-n4cccc4)cc(C)c32)c1 (centres unmarked) [Compound 16] | > 25 µM | 0.98 | 1.2 |  |
| Cc1cc(-n2ccc(CO)c2)c(C)c2c1[nH]c1ccc(Cl)cc12 [Compound 8] | 1 µM | 1 | 3.8 |  |
| Cc1cc(-n2c(C)ccc2C)c(C)c2c1[nH]c1ccc(Br)cc12 [Compound 9] | > 25 µM | 0.99 | 1 |  |
| Cc1cc(-n2cccc2)c(C)c2c1[nH]c1ccc(O)cc12 [Compound 11] | > 25 µM | 1.3 | 1.5 |  |
| Cc1cc(-n2cccc2)c(C)c2c1[nH]c1cc(Cl)ccc12 [Compound 4] | 15 µM | 0.93 | 1.8 |  |
| C/C(=C\c1csc(C)n1)[C@@H]1C[C@@H]2O[C@]2(C)CCC[C@H](C)[C@H](O)[C@@H](C)C(=O)C(C)(C)[C@@H](O)CC(=O)O1 [Epo-B, epothilone-B, reference compound] |  |  |  | fold reduction of GI50 by addition of 12 μM Carba1 ([1]; HeLa cells, 72 h): 4.4 fold; GI50 [1, 4]: 0.0005 ± 3e-05 µM |
| CCNCc1ccn(-c2cc(C)c3[nH]c4ccc(Cl)cc4c3c2C)c1 [Compound 7] | 10.3 µM | 1 | 0.77 |  |
| CC(=O)O[C@@]12CO[C@@H]1C[C@H](O)[C@@]1(C)C(=O)[C@H](O)C3=C(C)[C@@H](OC(=O)[C@H](O)[C@@H](NC(=O)OC(C)(C)C)c4ccccc4)C[C@@](O)([C@@H](OC(=O)c4ccccc4)[C@H]21)C3(C)C [DTX, docetaxel, reference compound] |  |  |  | fold reduction of GI50 by addition of 12 μM Carba1 ([1]; HeLa cells, 72 h): 3.8 fold; GI50 [1, 4]: 0.0011 ± 0.0002 µM |
| Cc1cc(-n2c(C)ccc2C)c(C)c2c1[nH]c1ccc(Cl)cc12 [Compound 12] | 14 µM | 1.09 | 0.9 |  |
| Cc1cc(-n2ccc(C=O)c2)c(C)c2c1[nH]c1ccc(Cl)cc12 [Compound 13] | 1 µM | 1 | 4.4 |  |
| Cc1cc(-n2ccc(CN(C)C)c2)c(C)c2c1[nH]c1ccc(Cl)cc12 [Compound 6] | 12.7 µM | 1 | 0.8 |  |
| Cc1cc(-n2ccc(C=O)c2)c(C)c2c1[nH]c1ccc(Br)cc12 [Compound 14] | 1.2 µM | 1 | 2.5 |  |
| CCOC(=O)Oc1ccc2[nH]c3c(C)cc(-n4cccc4)c(C)c3c2c1 [Compound 10] | 25 µM | 1.1 | 1.7 |  |
| CCOC(=O)Oc1ccc2[nH]c3c(C)cc(-n4c(C)ccc4C)c(C)c3c2c1 [Compound 15] | > 25 µM | 1.1 | 1 |  |
| N.N.[Cl][Pt][Cl] [Cis, cisplatin, reference compound] |  |  |  | GI50 ([1]; HeLa cells, 72 h, PrestoBlue, drug applied alone, read-out: GI50, drug alone): 0.167 ± 0.0308 µM |
| CCc1cccc2c1[nH]c1c(C)cc(-n3cccc3)c(C)c12 [Compound 3] | > 25 µM | 1.5 | 1.5 |  |
